System: DR0301-restricted E2_281-300-specific T-cell line
Experiment: Tetramer staining of sorted T-cell line with peptide-loaded DR0301 tetramers
Assay type: cell-based, human
Conditions: quadrant boundary set by unloaded tetramer (Figure 2B)

E2_285-300: truncated version of E2_281-300; minimal epitope
Staining of T-cell line with tetramers loaded with peptide: could be stained
